Measured values taken from US20110312986A1, “Composition and Method for Treating Overactive Bladder” (ALLERGAN, INC., priority 2010, published 2011).
Where two headings read alike, the source gives them in different places.

How the values were obtained:
[1] = Steady-state plasma pharmacokinetics of Trospium in subjects 65 years or older with overactive bladder symptoms (Example 1); type: in vivo, human; conditions: Day 10, 60 mg Trospium daily for 10 days
Protocol: (§1) A single-center, single-blind, randomized, placebo-controlled, parallel group study was conducted to evaluate whether Trospium permeates across the human blood-brain barrier and whether Trospium could cause cognitive impairment.

[2] = Trospium in cerebrospinal fluid: permeation across the blood-brain barrier (Example 1); type: in vivo, human
Protocol: as §1
For cerebrospinal fluid sampling at each pharmacokinetics time point, about 2.5 mL of cerebral spinal fluid was collected on Day 10 at 0 hr, 2 hr, 5 hr, 7 hr, 12 hr, and 24 hr post dose.

[3] = Neuropsychology testing: HVLT-R and BVMT-R, reliable change index (Example 1); type: in vivo, human
Protocol: as §1
For neuropsychology testing, each subject underwent the Hopkins Verbal Learning Test-Revised (HVLT-R) and the Brief Visuospatial Memory Test-Revised (BVMT-R) on Days 0, 9, and 10. Pre-dose (Day 0) and post-dose (Day 10) results on the neuropsychology tests were compared using a reliable change index to assess a change in learning of memory.

[4] = through tubular secretion and glomerular filtration; cited from earlier work
[5] = for Trospium Ae,0-24 (amount excreted unchanged in urine) / Trospium Ae,0-24/Dose (percentage of dose excreted in urine) / Trospium CLss/F (oral clearance) / Tmax: steady state; for Tmax: Trospium Tmax
clinical = conditions: both, human, plasma, oral
[6] = metabolite of Trospium; cited from earlier work
[7] = 60 mg Trospium with 500 mg Metformin
[8] = Glucophage/Sanctura XR regime (co-administered with 500 mg Metformin twice daily), N = 43
[9] = Trospium with Metformin versus Trospium alone
[10] = both, human, plasma, oral, 60 mg
[11] = column headed Glucophage ® Dosage Regime, N = 44, 60 mg Trospium daily for 10 days alone

O=C(OC1CC2CCC(C1)[N+]21CCCC1)C(O)(c1ccccc1)c1ccccc1.[Cl-] (stereo not shown) [Trospium, 3-(2-hydroxy-2,2-diphenylacetoxy) spiro[bicyclo[3.2.1]octane-8,1′-pyrrolidin]-1′-ium chloride]
Trospium concentration in plasma ([1]; 0 hr post dose): 522 pg/mL
Trospium concentration in plasma ([1]; 5 hr post dose): 925 pg/mL
Trospium concentration in plasma ([1]; 24 hr post dose): 649 pg/mL
Time of peak plasma concentration post-dosing [1]: 5 h
AUC(0-t) ([1]; both sexes, human, plasma, linear trapezoidal rule, read-out: AUC0-24, steady state): 18500 ng·h/mL
Cmax ([1]; both sexes, human, plasma, read-out: Peak plasma concentration (Cmax)): 0.925 ng/mL
Trospium concentration in cerebrospinal fluid ([2]; 0 hr post dose, Day 10, 60 mg Trospium daily for 10 days): <40 pg/mL
Trospium concentration in cerebrospinal fluid ([2]; 5 hr post dose, Day 10, 60 mg Trospium daily for 10 days): <40 pg/mL
Trospium concentration in cerebrospinal fluid ([2]; 24 hr post dose, Day 10, 60 mg Trospium daily for 10 days): <40 pg/mL
Trospium in cerebrospinal fluid, all 72 samples ([2]; Day 10, 0 to 24 hr post dose, detectable range 40 pg/mL): < 40 pg/mL
concentration at 5 h ([2]; both sexes, human, cerebrospinal fluid, 5 hr post dose, Day 10, 60 mg Trospium daily for 10 days): < 0.04 ng/mL
Crossing of the blood-brain barrier ([2]; conclusion from the cerebrospinal fluid levels): does not cross the blood-brain barrier
Net drug effect on cognition (HVLT-R, BVMT-R) ([3]; Day 0 versus Day 10, one subject deteriorated on total recall in both tests): no meaningful net drug effect on cognition
Cognitive impairment or memory loss ([3]; conclusion from the neuropsychology testing): does not cause cognitive impairment or memory loss
Share of the absorbed dose excreted unchanged in the urine [4]: 60%
Reduction of steady-state AUC0-24 of Trospium by co-administered Metformin [5, 7]: ~29%
Reduction of steady-state Cmax of Trospium by co-administered Metformin [5, 7]: approximately 34%
Trospium Ae,0-24 (amount excreted unchanged in urine) [5, 8]: 0.281 ± 0.156 mg
Trospium Ae,0-24/Dose (percentage of dose excreted in urine) [5, 8]: 0.468 ± 0.260%
Trospium CLss/F (oral clearance) [5, 8]: 4830 ± 2320 L/h
Percentage Ratio and 90% CI of the Geometric Mean of AUC0-24 (Combination/Alone) [5, 9]: 70.8 (66.2-75.7) %
Percentage Ratio and 90% CI of the Geometric Mean of Cmax (Combination/Alone) [5, 9]: 66.3 (61.0-72.0) %
AUC(0-t) [5, 10]: 22.7 ng·h/mL
Cmax [5, 10]: 1.87 ng/mL
concentration at 0 hr [5, 10]: 0.676 ng/mL
concentration at 1 hr [5, 10]: 0.831 ng/mL
concentration at 2 hr [5, 10]: 1.36 ng/mL
concentration at 3 hr [5, 10]: 1.57 ng/mL
concentration at 4 hr [5, 10]: 1.54 ng/mL
concentration at 5 hr [5, 10]: 1.53 ng/mL
concentration at 6 hr [5, 10]: 1.66 ng/mL
concentration at 8 hr [5, 10]: 1.12 ng/mL
concentration at 10 hr [5, 10]: 0.878 ng/mL
concentration at 12 hr [5, 10]: 0.781 ng/mL
concentration at 16 hr [5, 10]: 0.676 ng/mL
concentration at 24 hr [5, 10]: 0.655 ng/mL
Tmax ([5]; both, human, plasma, oral, 60 mg, column headed Glucophage ® Dosage Regime, N = 44, 60 mg Trospium daily for 10 days alone): ~4.42 h
Tmax ([5]; both, human, plasma, oral, Glucophage/Sanctura XR regime (co-administered with 500 mg Metformin twice daily), N = 43): ~4 h
CL renal ([5]; both, human, urine and plasma, oral, 60 mg): 307 mL/min
Trospium Ae,0-24 (amount excreted unchanged in urine) [5, 11]: 0.400 ± 0.247 mg
Trospium Ae,0-24/Dose (percentage of dose excreted in urine) [5, 11]: 0.667 ± 0.411%
Trospium CLss/F (oral clearance) [5, 11]: 3510 ± 1920 L/h
Reduction in percentage of Trospium dose excreted in urine on co-administration of Metformin ([5]; p value<0.0001): 30%

CN(C)C(=N)N=C(N)N [Metformin, N,N-dimethylimidodicarbonimidic diamide]
concentration at 11 hr (clinical): 155 ng/mL
concentration at 15 hr (clinical): 83 ng/mL

OC1C[C@H]2CC[C@@H](C1)[N+]21CCCC1 (stereo partly shown) [azoniaspironortropanol]
Pharmacological activity of the metabolite [6]: pharmacologically inactive
